Data: patent US12061186B2, “Compositions and methods for using cross-dressing to enhance anti-tumor immune responses” (Massachusetts Institute of Technology, priority 2020, dated 2024)

System: MC38-SIY tumor cells
Assay: IFNγ-ELISpot of splenocytes from mice implanted with PRR agonist-coated tumor cells
Assay type: in vivo
Protocol: Tumor cell lines were cultured at 37° C. and 5% CO2 in DMEM (Gibco) supplemented with 10% FBS (Atlanta Biologicals), 1% penicillin/streptomycin (Gibco), and 1×HEPES (Gibco). Tumor cells were harvested by trypsinization (Gibco) and washed 3 times with PBS (Gibco). Cells were resuspended in PBS, and 2×10^6 tumor cells were injected subcutaneously into the flanks of mice. For experiments with pattern recognition receptor (PRR) agonist coating, 2×10^6 tumor cells were resuspended with 50 μg naked Poly(I:C) HMW (InvivoGen), DMXAA (InvivoGen), or Pam2CSK4 (InvivoGen) in PBS and injected subcutaneously into the flanks of mice. All PRR agonists were added to cells without a transfection reagent. For experiments with fixed tumor cells, the cells were fixed with 4% paraformaldehyde (Electron Microscopy Sciences) for 10 minutes at RT, washed twice and resuspended with PBS, and 2×10^6 tumor cells were injected subcutaneously into the flanks of mice. Tumor area measurements (calculated as length×width) were collected 2-3 times a week until the endpoint of the study. Data not shown but available upon request—Details on experimental cohorts, the raw data, as well as the power calculations for all tumor outgrowth experiments.
ELISpot plates (EMD Millipore) were coated overnight at 4° C. with anti-IFNγ (BD Biosciences). Plates were washed and blocked with DMEM supplemented with 10% FBS, 1% penicillin/streptomycin, and 1×HEPES for 2 hours at room temperature (RT). Spleens were harvested from mice at day 5 or day 7 post-tumor inoculation and mashed through a 70 μm filter with a 1 mL syringe plunger to generate a single cell suspension. Red blood cells were lysed with 500 μL of ACK Lysing Buffer (Gibco) on ice for 2 minutes. Splenocytes were washed 3 times with chilled PBS and 1×10^6 cells were assayed per well in the presence or absence of 160 nM SIY peptide or 100 ng/mL PMA (Sigma-Aldrich) and 1 μg/mL ionomycin (Sigma-Aldrich) as a positive control. Plates were developed the next day using the BD mouse IFNγ-ELISpot kit, following manufacturer's protocol.

polyinosinic-polycytidylic acid [Poly(I:C)]
induction of antigen-specific T cell responses (IFNγ-ELISpot) (Poly(I:C)-coated 4% PFA-fixed MC38-SIY tumor cells): failed to induce any antigen-specific T cell responses
antigen-specific T cell responses restored, as share of the priming responses observed in WT mice (IFNγ-ELISpot) (Poly(I:C)-coated MC38-SIY tumor cells implanted in Batf3−/− mice, day 7 post-tumor inoculation, 50 μg per 2×10^6 cells): 45.0%
restoration of T cell responses (IFNγ-ELISpot) (Poly(I:C)-coated MHC class I-deficient (β2M−/−) MC38-SIY tumor cells, Batf3−/− mice): no restoration
